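All cell lines were grown in 96-well plates and treated with compound for 48 hours. GI50 is the concentration that inhibits growth by half. The concentration for full growth arrest is given as TGI.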
Columns and labels:
Assay in all cases: growth of human tumour cells (NCI), 48 h
[1] = system: KM12 colon
[2] = system: RXF 393 renal
[3] = system: SF-539 CNS
[4] = system: SK-OV-3 ovarian
[5] = system: SN12C renal
[6] = system: SNB-19 CNS
[7] = system: SNB-75 CNS
[8] = system: UO-31 renal
[9] = system: A498 renal
[10] = system: MCF7 breast

Row | Structure (SMILES) | TGI [1] | TGI [2] | TGI [3] | TGI [4] | TGI [5] | TGI [6] | TGI [7] | TGI [8] | TGI [9] | TGI [10] | GI50 [9] | GI50 [1] | GI50 [10] | GI50 [2] | GI50 [3] | GI50 [5] | GI50 [6] | GI50 [7] | GI50 [8] | GI50 [4]
1 | CC(C)CCC[C@@H](C)C1CCC2[C@@H]3CC=C4C[C@@H](C(=O)NCC[N+](C)(C)CCCS(=O)(=O)[O-])CC[C@]4(C)C3CC[C@@]21C (stereo partly drawn) | 31.5 µM | 36.5 µM | 36.6 µM | 30.9 µM | 32.6 µM | 36.4 µM | 35.1 µM | 34.3 µM | – | – | – | – | – | – | – | – | – | – | – | –
2 | O=C(O)CNc1ccc(C(=O)O)cc1 | > 100 µM | > 100 µM | > 100 µM | > 100 µM | > 100 µM | > 100 µM | > 100 µM | > 100 µM | > 100 µM | > 100 µM | – | – | – | – | – | – | – | – | – | –
3 | S=P1(N2CCCCC2)Oc2ccc3ccccc3c2-c2c(ccc3ccccc23)O1 | > 100 µM | > 100 µM | > 100 µM | > 100 µM | > 100 µM | > 100 µM | > 92.1 µM | > 100 µM | > 100 µM | > 100 µM | – | – | – | – | – | – | – | – | – | –
4 | O=[N+]([O-])c1ccccc1NC1c2ccccc2Oc2ccccc21 | > 100 µM | 16.6 µM | > 100 µM | – | > 100 µM | > 100 µM | 38.6 µM | > 100 µM | > 100 µM | > 100 µM | 5.82 µM | 4.34 µM | 4.13 µM | 3.35 µM | 3.27 µM | 6.17 µM | 4.35 µM | 2.94 µM | 7.46 µM | –
5 | Cc1ccc([N+](=O)[O-])cc1S(=O)(=O)Nc1ccc(C2=NNC(c3ccccc3O)C2)cc1 (stereo not drawn) | 76.7 µM | 40.5 µM | > 100 µM | > 100 µM | 82.9 µM | > 100 µM | > 100 µM | 79.2 µM | 79.3 µM | 64.7 µM | – | – | – | – | – | – | – | – | – | –
6 | CN1CCCCC(C#N)(c2ccccc2)CC1 (stereo not drawn) | > 100 µM | > 100 µM | – | > 100 µM | – | > 100 µM | > 100 µM | > 100 µM | > 100 µM | > 100 µM | – | – | – | – | – | – | – | – | – | –
7 | N=C(N)c1ccc(-c2ccc(-c3ccccc3)s2)cc1 | – | 3.39 µM | 3 µM | 7.27 µM | 3.41 µM | – | – | 2.81 µM | – | – | – | – | – | 1.72 µM | 1.63 µM | 1.72 µM | – | – | 1.48 µM | 2.42 µM
8 | CC(=O)Oc1ccc2c(c1)oc1c3ccc(OC(C)=O)cc3n(C)c(=O)c21 | 20.6 µM | > 100 µM | > 100 µM | > 100 µM | 66 µM | > 100 µM | 4.16 µM | > 100 µM | – | > 100 µM | – | – | – | – | – | – | – | – | – | –
9 | C=C1C(=O)C[C@@]23CCC[C@@]12CC(OCOC)C3 (stereo partly drawn) | 9.48 µM | 2.17 µM | 9.5 µM | 17.8 µM | 4.53 µM | 28.7 µM | 6.41 µM | 13.3 µM | 18.4 µM | 3.74 µM | – | – | – | – | – | – | – | – | – | –
10 | N=c1c2c(=S)n(-c3ccccc3)c(=S)n(-c3ccccc3)c2nc(SCCCN2CCN(c3cccc(Cl)c3)CC2)n1-c1ccccc1 | > 100 µM | > 100 µM | > 100 µM | > 100 µM | – | – | > 100 µM | – | > 100 µM | > 100 µM | – | – | – | – | – | – | – | – | – | –
11 | Cc1cc(C)c2c(c1)CC1(Cc3c(C)ccc(C)c3C1=O)C2=O (stereo not drawn) | > 100 µM | > 100 µM | > 100 µM | – | > 100 µM | > 100 µM | > 100 µM | – | > 100 µM | > 100 µM | – | – | – | – | – | – | – | – | – | –
12 | CCCCCCCC/C=C\CCCCCCCC(=O)O | > 500 µM | 168 µM | 184 µM | > 500 µM | 199 µM | 252 µM | 29.6 µM | 241 µM | > 500 µM | 215 µM | – | – | – | – | – | – | – | – | – | –
13 | COC(=O)c1cccc(N[C@@H]2c3cc4c(cc3C(c3cc(OC)c(O)c(OC)c3)[C@H]3C(=O)OCC32)OCO4)c1 (stereo partly drawn) | 10.2 µM | 15.9 µM | 3.64 µM | 23.6 µM | – | > 63.4 µM | > 21 µM | 11.7 µM | 3.46 µM | > 67.7 µM | – | – | – | – | – | – | – | – | – | –
14 | CCN(CC)CCCNc1ncc(C)c2[nH]c3ccncc3c12 | 42 µM | 23 µM | 20.9 µM | 15.9 µM | 30.5 µM | > 100 µM | 27.7 µM | > 100 µM | 40.4 µM | 17.4 µM | – | – | – | – | – | – | – | – | – | –
15 | COc1cc(/C=C/c2cc(/C=C/c3ccc(O)c(OC)c3)nc(N)n2)ccc1O | 3.32 µM | – | 5.73 µM | 8.23 µM | > 100 µM | 7.95 µM | 3.34 µM | 7.58 µM | 3.26 µM | 6.33 µM | 1.51 µM | 1.63 µM | 1.81 µM | – | 2.05 µM | 2.74 µM | 1.81 µM | 1.26 µM | 2.09 µM | 2.6 µM
16 | O=C(O)CS | > 100 µM | > 100 µM | > 100 µM | > 100 µM | > 100 µM | > 100 µM | > 100 µM | > 100 µM | – | – | – | – | – | – | – | – | – | – | – | –

From PubChem BioAssay (NCI)
